{
  "source": "paper PMC9889419",
  "about": "(Pharmacological Reports, 2022)",
  "biological_target": "T1, hNav1.7 sodium channel (Homo sapiens, UniProt Q15858)",
  "T1 construct": "host or cells: CHO cells",
  "T1 sequence (Q15858 whole entry)": "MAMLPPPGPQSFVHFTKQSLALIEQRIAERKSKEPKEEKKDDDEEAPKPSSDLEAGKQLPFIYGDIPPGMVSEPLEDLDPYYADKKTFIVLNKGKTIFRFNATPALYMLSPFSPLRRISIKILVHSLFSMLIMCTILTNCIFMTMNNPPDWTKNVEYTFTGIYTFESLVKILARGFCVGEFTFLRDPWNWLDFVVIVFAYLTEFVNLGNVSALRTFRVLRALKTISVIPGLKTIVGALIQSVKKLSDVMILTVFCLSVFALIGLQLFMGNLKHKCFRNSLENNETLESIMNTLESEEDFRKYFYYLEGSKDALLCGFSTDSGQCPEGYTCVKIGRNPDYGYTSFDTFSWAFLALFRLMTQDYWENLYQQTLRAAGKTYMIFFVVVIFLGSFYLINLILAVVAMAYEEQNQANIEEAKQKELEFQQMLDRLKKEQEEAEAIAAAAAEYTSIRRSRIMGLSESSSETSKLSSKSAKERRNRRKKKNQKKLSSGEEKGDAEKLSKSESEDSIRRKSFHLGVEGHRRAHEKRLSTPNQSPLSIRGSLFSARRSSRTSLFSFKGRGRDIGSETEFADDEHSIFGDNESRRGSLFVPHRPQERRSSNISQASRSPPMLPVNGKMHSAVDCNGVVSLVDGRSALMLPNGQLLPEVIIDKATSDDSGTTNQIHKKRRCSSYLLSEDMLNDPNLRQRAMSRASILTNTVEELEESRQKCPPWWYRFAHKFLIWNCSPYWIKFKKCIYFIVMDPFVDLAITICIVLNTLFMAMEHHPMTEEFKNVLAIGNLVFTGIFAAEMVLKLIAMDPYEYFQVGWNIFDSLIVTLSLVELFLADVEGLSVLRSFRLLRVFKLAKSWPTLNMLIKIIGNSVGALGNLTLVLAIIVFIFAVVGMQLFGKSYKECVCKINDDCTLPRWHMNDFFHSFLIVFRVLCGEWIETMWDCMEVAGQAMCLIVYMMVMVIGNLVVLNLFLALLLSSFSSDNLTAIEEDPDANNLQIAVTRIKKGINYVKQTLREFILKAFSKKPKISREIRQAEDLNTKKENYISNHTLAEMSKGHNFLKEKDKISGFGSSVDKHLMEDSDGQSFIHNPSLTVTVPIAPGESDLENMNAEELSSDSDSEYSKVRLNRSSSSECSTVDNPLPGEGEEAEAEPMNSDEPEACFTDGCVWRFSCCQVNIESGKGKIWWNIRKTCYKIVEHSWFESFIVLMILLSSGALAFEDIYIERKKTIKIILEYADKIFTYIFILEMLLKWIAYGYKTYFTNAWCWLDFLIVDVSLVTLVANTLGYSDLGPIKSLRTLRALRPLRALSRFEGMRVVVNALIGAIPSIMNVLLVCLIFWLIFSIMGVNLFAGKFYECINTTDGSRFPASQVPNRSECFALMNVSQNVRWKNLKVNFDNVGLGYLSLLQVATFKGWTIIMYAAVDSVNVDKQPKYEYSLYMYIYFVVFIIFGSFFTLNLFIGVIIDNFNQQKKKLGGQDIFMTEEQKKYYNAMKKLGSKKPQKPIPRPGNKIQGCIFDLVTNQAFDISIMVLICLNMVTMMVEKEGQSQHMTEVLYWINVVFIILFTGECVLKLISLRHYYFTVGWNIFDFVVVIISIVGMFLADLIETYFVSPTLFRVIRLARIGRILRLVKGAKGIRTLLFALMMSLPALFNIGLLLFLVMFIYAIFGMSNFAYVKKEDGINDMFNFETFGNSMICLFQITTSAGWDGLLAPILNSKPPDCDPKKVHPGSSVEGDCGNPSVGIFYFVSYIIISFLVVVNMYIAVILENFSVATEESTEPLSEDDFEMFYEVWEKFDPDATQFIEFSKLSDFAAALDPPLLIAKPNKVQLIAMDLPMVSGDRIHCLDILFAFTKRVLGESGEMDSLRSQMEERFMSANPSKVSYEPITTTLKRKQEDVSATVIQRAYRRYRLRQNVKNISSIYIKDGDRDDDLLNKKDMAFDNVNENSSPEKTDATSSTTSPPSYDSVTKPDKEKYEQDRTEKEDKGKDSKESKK",
  "assay": "Nav channel electrophysiology (IonWorks Quattro)",
  "type": "cell-based",
  "note": "Structures can show the parent of a compound that is named as a salt.",
  "data": [
    {"smiles": "CCC(CO)NCCOc1c(C)cccc1Cl", "note": "(stereo not drawn) [KM-408, R,S-2-((2-(2-chloro-6-methylphenoxy)ethyl)amino)butan-1-ol hydrochloride]", "values": [
      {"measurement": "IC50", "setting": "10 Hz", "result": 15.4, "unit": "µM"},
      {"measurement": "IC50", "setting": "Inactivated state", "result": "< 10", "unit": "µM"},
      {"measurement": "IC50", "setting": "Tonic block", "result": 52, "unit": "µM"}
    ]}
  ]
}
